Test results: publication PMC11310081, “Deep-learning-enabled antibiotic discovery through molecular de-extinction” (Nature Biomedical Engineering, 2024)
Values after ≈ are worked out from the molar mass of the structure shown. “Also recorded” adds a separate entry of the source. Peptide text beside a SMILES is read from it.

Legend:
HEK293T cells = details: 24 h
Outline: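 5,000 cells/well seeded a day ahead in DMEM with 10% FBS, then treated with peptides; viability by MTT (0.5 mg/ml, 4 h, 37 °C), formazan in acidic isopropanol read at 570 nm. Concentration causing 50% lysis from non-linear regression; three biological replicates, two technical each.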

A. baumannii ATCC 19606 = experiment: Neutropenic thigh infection mouse model; assay type: in vivo, CD-1 mice; details: for bacterial count, thigh infection (Panel 6d): neutropenic CD-1 mice
Procedure: Six-week-old female CD-1 mice from Charles River (stock number 18679700-022) were rendered neutropenic by two doses of cyclophosphamide (150 mg kg^−1) applied intraperitoneally with an interval of 72 h. One day after the last dose of cyclophosphamide, the mice were injected intramuscularly in their right thigh with a bacterial load of 10^6 c.f.u. ml^−1 of A. baumannii ATCC 19606 cells. The bacteria had been grown in LB broth, washed twice with PBS (pH 7.4), and resuspended to the desired concentration. Two hours after bacterial injection, peptides resuspended in water were administered intraperitoneally, and the untreated mice were inoculated with the same volume of deionized water. Before each injection, mice were anaesthetized with isoflurane and monitored for respiratory rate and pedal reflexes. Next, we monitored the establishment of the infection and euthanized the mice. The infected area was excised 2 days and 4 days post infection, homogenized using a bead beater for 20 min (25 Hz), and then serially diluted tenfold for quantification of colony-forming units in MacConkey agar plates. The experiments were performed with six mice per group. All experiments were performed blindly, and no animal subjects were excluded from the analysis. The thigh infection mouse model was approved by the University Laboratory Animal Resources from the University of Pennsylvania (protocol 807055). Statistical significance was determined using one-way ANOVA followed by Dunnett’s test in log10-transformed data to mitigate the effect of outliers; P values are presented for each group, with all groups being compared to the untreated control group.

[1] = test system: 11 clinically relevant bacterial pathogens; assay type: cell-based; details: for Active or Inactive: Supplementary Dataset 2, against the 11 pathogens tested; for MIC (lowest MIC value in the antimicrobial activity assays): Supplementary Table 17, lowest MIC among the strains tested
Outline: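 Optical density at 600 nm served as the growth read-out after broth microdilution exposure to peptides spanning 1–64 μmol l^−1. Assays used logarithmic-phase bacteria and were run as three biological replicates.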

[2] = A. baumannii ATCC 19606, day 2, replicate 1
[3] = A. baumannii ATCC 19606, day 2, replicate 2
[4] = A. baumannii ATCC 19606, day 2, replicate 3
[5] = A. baumannii ATCC 19606, day 2, replicate 4
[6] = A. baumannii ATCC 19606, day 2, replicate 5
[7] = A. baumannii ATCC 19606, day 2, replicate 6
[8] = A. baumannii ATCC 19606, day 4, replicate 1
[9] = A. baumannii ATCC 19606, day 4, replicate 2
[10] = A. baumannii ATCC 19606, day 4, replicate 3
[11] = A. baumannii ATCC 19606, day 4, replicate 4
[12] = A. baumannii ATCC 19606, day 4, replicate 5
[13] = A. baumannii ATCC 19606, day 4, replicate 6

Structure (SMILES): CC[C@H](C)[C@H](NC(=O)[C@H](CO)NC(=O)[C@H](CCCNC(=N)N)NC(=O)[C@H](C)NC(=O)[C@H](Cc1c[nH]cn1)NC(=O)[C@H](CC(C)C)NC(=O)[C@H](CS)NC(=O)[C@H](C)NC(=O)[C@@H](N)CCCNC(=N)N)C(=O)N[C@@H](C)C(=O)N[C@@H](CCCNC(=N)N)C(=O)N[C@@H](CC(C)C)C(=O)N[C@@H](Cc1c[nH]cn1)C(=O)N[C@@H](CCCCN)C(=O)N[C@@H](CCCNC(=N)N)C(=O)N[C@@H](Cc1c[nH]c2ccccc12)C(=O)N[C@@H](CCCNC(=N)N)C(=O)N1CCC[C@H]1C(=O)N[C@H](C(=O)N[C@@H](Cc1c[nH]cn1)C(=O)N[C@@H](CCC(N)=O)C(=O)NCC(=O)N[C@@H](CC(C)C)C(=O)NCC(=O)N[C@@H](CC(C)C)C(=O)N[C@@H](CCCCN)C(=O)O)C(C)C [Mammuthusin-2] (H-RACLHARSIARLHKRWRPVHQGLGLK-OH; N-terminus and C-terminus assumed)
- CC50 (HEK293T cells): > 128 µM
- TI (therapeutic index) (HEK293T cells): > 4
- bacterial count, thigh infection (Panel 6d) (A. baumannii ATCC 19606; [2]): 800000
- bacterial count, thigh infection (Panel 6d) (A. baumannii ATCC 19606; [3]): 2e+007
- bacterial count, thigh infection (Panel 6d) (A. baumannii ATCC 19606; [4]): 4000000
- bacterial count, thigh infection (Panel 6d) (A. baumannii ATCC 19606; [5]): 2000000
- bacterial count, thigh infection (Panel 6d) (A. baumannii ATCC 19606; [6]): 1e+007
- bacterial count, thigh infection (Panel 6d) (A. baumannii ATCC 19606; [7]): 4000000
- bacterial count, thigh infection (Panel 6d) (A. baumannii ATCC 19606; [8]): 800000
- bacterial count, thigh infection (Panel 6d) (A. baumannii ATCC 19606; [9]): 600000
- bacterial count, thigh infection (Panel 6d) (A. baumannii ATCC 19606; [10]): 6000000
- bacterial count, thigh infection (Panel 6d) (A. baumannii ATCC 19606; [11]): 6000000
- bacterial count, thigh infection (Panel 6d) (A. baumannii ATCC 19606; [12]): 2000000
- bacterial count, thigh infection (Panel 6d) (A. baumannii ATCC 19606; [13]): 4000000
- Active or Inactive [1]: Active
- MIC (lowest MIC value in the antimicrobial activity assays) [1]: 32 µM (≈ 97.9 µg/mL)

Structure (SMILES): CC[C@H](C)[C@H](NC(=O)[C@@H](N)CC(C)C)C(=O)N[C@H](C(=O)N[C@@H](CS)C(=O)N[C@@H](Cc1ccccc1)C(=O)N[C@@H](Cc1ccccc1)C(=O)N[C@@H](CCCNC(=N)N)C(=O)N[C@@H](CCC(N)=O)C(=O)N[C@@H](CC(C)C)C(=O)N[C@@H](CCCCN)C(=O)N[C@@H](Cc1ccccc1)C(=O)N[C@@H](Cc1c[nH]cn1)C(=O)N[C@@H](Cc1ccccc1)C(=O)O)C(C)C [Megalocerin-1] (H-LIVCFFRQLKFHF-OH; N-terminus and C-terminus assumed)
- CC50 (HEK293T cells): > 128 µM
- TI (therapeutic index) (HEK293T cells): > 16
- bacterial count, thigh infection (Panel 6d) (A. baumannii ATCC 19606; [2]): 1.2e+008
- bacterial count, thigh infection (Panel 6d) (A. baumannii ATCC 19606; [3]): 2.0e+007
- bacterial count, thigh infection (Panel 6d) (A. baumannii ATCC 19606; [4]): 2.2e+008
- bacterial count, thigh infection (Panel 6d) (A. baumannii ATCC 19606; [5]): 2.0e+008
- bacterial count, thigh infection (Panel 6d) (A. baumannii ATCC 19606; [6]): 1.2e+008
- bacterial count, thigh infection (Panel 6d) (A. baumannii ATCC 19606; [7]): 2.8e+008
- bacterial count, thigh infection (Panel 6d) (A. baumannii ATCC 19606; [8]): 6.0e+008
- bacterial count, thigh infection (Panel 6d) (A. baumannii ATCC 19606; [9]): 1.0e+009
- bacterial count, thigh infection (Panel 6d) (A. baumannii ATCC 19606; [10]): 4.0e+007
- bacterial count, thigh infection (Panel 6d) (A. baumannii ATCC 19606; [11]): 6.0e+007
- bacterial count, thigh infection (Panel 6d) (A. baumannii ATCC 19606; [12]): 4.0e+007
- bacterial count, thigh infection (Panel 6d) (A. baumannii ATCC 19606; [13]): 2.0e+007
- Active or Inactive [1]: Active
- MIC (lowest MIC value in the antimicrobial activity assays) [1]: 8 µM (≈ 13.6 µg/mL)

Structure (SMILES): CC[C@H](C)[C@H](N)C(=O)N[C@@H](Cc1ccccc1)C(=O)N[C@@H](CC(C)C)C(=O)N[C@@H](Cc1c[nH]cn1)C(=O)N[C@@H](CC(C)C)C(=O)N[C@@H](CCCCN)C(=O)N[C@H](C(=O)N[C@@H](CC(C)C)C(=O)N[C@@H](CCCCN)C(=O)N[C@H](C(=O)N[C@H](C(=O)N[C@@H](CCCNC(=N)N)C(=O)N[C@@H](CC(C)C)C(=O)N[C@@H](CC(C)C)C(=O)O)[C@@H](C)CC)[C@@H](C)CC)[C@@H](C)CC [Elephasin-2] (H-IFLHLKILKIIRLL-OH; N-terminus and C-terminus assumed)
- CC50 (HEK293T cells): > 128 µM
- bacterial count, thigh infection (Panel 6d) (A. baumannii ATCC 19606; [2]): 2e+007
- bacterial count, thigh infection (Panel 6d) (A. baumannii ATCC 19606; [3]): 4e+007
- bacterial count, thigh infection (Panel 6d) (A. baumannii ATCC 19606; [4]): 4e+007
- bacterial count, thigh infection (Panel 6d) (A. baumannii ATCC 19606; [5]): 4e+007
- bacterial count, thigh infection (Panel 6d) (A. baumannii ATCC 19606; [6]): 8e+007
- bacterial count, thigh infection (Panel 6d) (A. baumannii ATCC 19606; [7]): 1e+008
- bacterial count, thigh infection (Panel 6d) (A. baumannii ATCC 19606; [8]): 1400000
- bacterial count, thigh infection (Panel 6d) (A. baumannii ATCC 19606; [9]): 1000000
- bacterial count, thigh infection (Panel 6d) (A. baumannii ATCC 19606; [10]): 4000000
- bacterial count, thigh infection (Panel 6d) (A. baumannii ATCC 19606; [11]): 1000000
- bacterial count, thigh infection (Panel 6d) (A. baumannii ATCC 19606; [12]): 800000
- bacterial count, thigh infection (Panel 6d) (A. baumannii ATCC 19606; [13]): 4000000
- Active or Inactive [1]: Active
- MIC (lowest MIC value in the antimicrobial activity assays) [1]: 1 µM (≈ 1.73 µg/mL)

Structure (SMILES): CC(C)C[C@H](NC(=O)CNC(=O)[C@H](CCCNC(=N)N)NC(=O)[C@H](CCCCN)NC(=O)[C@H](CCCNC(=N)N)NC(=O)[C@@H](N)CCCCN)C(=O)N[C@@H](CCCCN)C(=O)N[C@@H](CC(C)C)C(=O)N[C@@H](C)C(=O)N[C@H](C(=O)N[C@@H](C)C(=O)N[C@@H](CC(C)C)C(=O)N[C@@H](CO)C(=O)N[C@@H](CC(C)C)C(=O)N[C@@H](CC(N)=O)C(=O)N[C@@H](CC(N)=O)C(=O)N[C@@H](CCCCN)C(=O)N[C@@H](Cc1ccccc1)C(=O)O)[C@@H](C)O [Mylodonin-2] (H-KRKRGLKLATALSLNNKF-OH; N-terminus and C-terminus assumed)
- CC50 (HEK293T cells): > 128 µM
- bacterial count, thigh infection (Panel 6d) (A. baumannii ATCC 19606; [2]): 1200000
- bacterial count, thigh infection (Panel 6d) (A. baumannii ATCC 19606; [3]): 2400000
- bacterial count, thigh infection (Panel 6d) (A. baumannii ATCC 19606; [4]): 1000000
- bacterial count, thigh infection (Panel 6d) (A. baumannii ATCC 19606; [5]): 1800000
- bacterial count, thigh infection (Panel 6d) (A. baumannii ATCC 19606; [6]): 200000
- bacterial count, thigh infection (Panel 6d) (A. baumannii ATCC 19606; [7]): 400000
- bacterial count, thigh infection (Panel 6d) (A. baumannii ATCC 19606; [8]): 1.2e+007
- bacterial count, thigh infection (Panel 6d) (A. baumannii ATCC 19606; [9]): 1.2e+008
- bacterial count, thigh infection (Panel 6d) (A. baumannii ATCC 19606; [10]): 2.0e+007
- bacterial count, thigh infection (Panel 6d) (A. baumannii ATCC 19606; [11]): 2.0e+007
- bacterial count, thigh infection (Panel 6d) (A. baumannii ATCC 19606; [12]): 4.0e+007
- bacterial count, thigh infection (Panel 6d) (A. baumannii ATCC 19606; [13]): 2.0e+007
- Reduction in bacterial counts, 2 days post treatment (A. baumannii ATCC 19606; neutropenic thigh infection, single intraperitoneal dose, n = 6): as much as polymyxin B; also recorded: most potent activity, which was comparable to that of the positive control antibiotic, polymyxin B
- Active or Inactive [1]: Active
